Assay results taken from article PMC10620772, “Design, synthesis, and biological evaluation of new pyrimidine-5-carbonitrile derivatives as novel anti-cancer, dual EGFR^WT/COX-2 inhibitors with docking studies” (RSC Advances, 2023).

What was measured:
Assay type in all cases: cell-based, human
[1] = tested on: CCRF-CEM; assay: NCI60 antitumor screening; settings: 10 μM one-dose
[2] = tested on: HL-60(TB); assay: NCI60 antitumor screening; settings: 10 μM one-dose
[3] = tested on: K-562; assay: NCI60 antitumor screening; settings: 10 μM one-dose
[4] = tested on: MOLT-4; assay: NCI60 antitumor screening; settings: 10 μM one-dose
[5] = tested on: RPMI-8226; assay: NCI60 antitumor screening; settings: 10 μM one-dose
[6] = tested on: SR; assay: NCI60 antitumor screening; settings: 10 μM one-dose
[7] = tested on: A549/ATCC; assay: NCI60 antitumor screening; settings: 10 μM one-dose
[8] = tested on: EKVX; assay: NCI60 antitumor screening; settings: 10 μM one-dose
[9] = tested on: HOP-62; assay: NCI60 antitumor screening; settings: 10 μM one-dose
[10] = tested on: HOP-92; assay: NCI60 antitumor screening; settings: 10 μM one-dose
[11] = tested on: NCI-H226; assay: NCI60 antitumor screening; settings: 10 μM one-dose
[12] = tested on: NCI-H23; assay: NCI60 antitumor screening; settings: 10 μM one-dose
[13] = tested on: NCI-H322M; assay: NCI60 antitumor screening; settings: 10 μM one-dose
[14] = tested on: NCI-H460; assay: NCI60 antitumor screening; settings: 10 μM one-dose
[15] = tested on: NCI-H522; assay: NCI60 antitumor screening; settings: 10 μM one-dose
[16] = tested on: COLO 205; assay: NCI60 antitumor screening; settings: 10 μM one-dose
[17] = tested on: HCC-2998; assay: NCI60 antitumor screening; settings: 10 μM one-dose
[18] = tested on: HCT-116; assay: NCI60 antitumor screening; settings: 10 μM one-dose
[19] = tested on: HCT-15; assay: NCI60 antitumor screening; settings: 10 μM one-dose
[20] = tested on: HT29; assay: NCI60 antitumor screening; settings: 10 μM one-dose
[21] = tested on: KM12; assay: NCI60 antitumor screening; settings: 10 μM one-dose
[22] = tested on: SW-620; assay: NCI60 antitumor screening; settings: 10 μM one-dose
[23] = tested on: SF-268; assay: NCI60 antitumor screening; settings: 10 μM one-dose
[24] = tested on: SF-295; assay: NCI60 antitumor screening; settings: 10 μM one-dose
[25] = tested on: SF-539; assay: NCI60 antitumor screening; settings: 10 μM one-dose
[26] = tested on: SNB-19; assay: NCI60 antitumor screening; settings: 10 μM one-dose
[27] = tested on: SNB-75; assay: NCI60 antitumor screening; settings: 10 μM one-dose
[28] = tested on: U251; assay: NCI60 antitumor screening; settings: 10 μM one-dose
[29] = tested on: LOX IMVI; assay: NCI60 antitumor screening; settings: 10 μM one-dose
[30] = tested on: MALME-3M; assay: NCI60 antitumor screening; settings: 10 μM one-dose
[31] = tested on: M14; assay: NCI60 antitumor screening; settings: 10 μM one-dose
[32] = tested on: MDA-MB-435; assay: NCI60 antitumor screening; settings: 10 μM one-dose
[33] = tested on: SK-MEL-2; assay: NCI60 antitumor screening; settings: 10 μM one-dose
[34] = tested on: SK-MEL-28; assay: NCI60 antitumor screening; settings: 10 μM one-dose
[35] = tested on: SK-MEL-5; assay: NCI60 antitumor screening; settings: 10 μM one-dose
[36] = tested on: UACC-257; assay: NCI60 antitumor screening; settings: 10 μM one-dose
[37] = tested on: UACC-62; assay: NCI60 antitumor screening; settings: 10 μM one-dose
[38] = tested on: IGROV1; assay: NCI60 antitumor screening; settings: 10 μM one-dose
[39] = tested on: OVCAR-3; assay: NCI60 antitumor screening; settings: 10 μM one-dose
[40] = tested on: OVCAR-4; assay: NCI60 antitumor screening; settings: 10 μM one-dose
[41] = tested on: OVCAR-5; assay: NCI60 antitumor screening; settings: 10 μM one-dose
[42] = tested on: OVCAR-8; assay: NCI60 antitumor screening; settings: 10 μM one-dose
[43] = tested on: NCI/ADR-RES; assay: NCI60 antitumor screening; settings: 10 μM one-dose
[44] = tested on: SK-OV-3; assay: NCI60 antitumor screening; settings: 10 μM one-dose
[45] = tested on: 786–0; assay: NCI60 antitumor screening; settings: 10 μM one-dose
[46] = tested on: A498; assay: NCI60 antitumor screening; settings: 10 μM one-dose
[47] = tested on: ACHN; assay: NCI60 antitumor screening; settings: 10 μM one-dose
[48] = tested on: CAKI-1; assay: NCI60 antitumor screening; settings: 10 μM one-dose
[49] = tested on: RXF 393; assay: NCI60 antitumor screening; settings: 10 μM one-dose
[50] = tested on: SN12C; assay: NCI60 antitumor screening; settings: 10 μM one-dose
[51] = tested on: TK-10; assay: NCI60 antitumor screening; settings: 10 μM one-dose
[52] = tested on: UO-31; assay: NCI60 antitumor screening; settings: 10 μM one-dose
[53] = tested on: PC-3; assay: NCI60 antitumor screening; settings: 10 μM one-dose
[54] = tested on: DU-145; assay: NCI60 antitumor screening; settings: 10 μM one-dose
[55] = tested on: MCF7; assay: NCI60 antitumor screening; settings: 10 μM one-dose
[56] = tested on: MDA-MB-231/ATCC; assay: NCI60 antitumor screening; settings: 10 μM one-dose
[57] = tested on: HS 578T; assay: NCI60 antitumor screening; settings: 10 μM one-dose
[58] = tested on: BT-549; assay: NCI60 antitumor screening; settings: 10 μM one-dose
[59] = tested on: T-47D; assay: NCI60 antitumor screening; settings: 10 μM one-dose
[60] = tested on: MDA-MB-468; assay: NCI60 antitumor screening; settings: 10 μM one-dose
[61] = tested on: NCI60 cell lines panel; assay: NCI60 antitumor screening, full panel; settings: 10 μM one-dose, mean over NCI60
Description: The National Cancer Institute (NCI), Bethesda, Maryland, United States, selected all of the novel synthesized compounds (2b–d, 3a–d and 4a–p) for in vitro antitumor screening at a single concentration of 10 μM toward the NCI60 cell lines panel covering leukaemia, non-small cell lungs, colon, central nervous system (CNS), melanoma, ovarian, renal, prostate, and breast cancer cells.[32–35] The data were reported as a mean graph of the percent growth of the treated cell lines and expressed as percentage growth inhibition (GI%) in Table 1 and ESI 1.
(2) The molar concentration of the compound responsible for total growth inhibition, also known as total growth inhibition (TGI).
Regarding subpanel selectivity toward certain cancer type, the method of determining a compound's selectivity index is to divide the full panel MG-MID (μM) value by each single subpanel. Values above six indicate high selectivity against the subpanel; moderate selectivity is denoted by values between three and six. Conversely, compounds are termed nonselective if their selectivity is less than three.[30,37]

With N#Cc1c(Cl)nc(SCc2ccccc2)nc1-c1ccc(F)cc1 [3a, 2-(Benzylthio)-4-chloro-6-(4-fluorophenyl) pyrimidine-5-carbonitrile] the GI% [1] was “— (GI% < 10)”, the GI% [2] was 44.03% and the GI% [3] was 11.78%. For the same molecule, the GI% [4] was “— (GI% < 10)”, the GI% [5] was “— (GI% < 10)” and the GI% [6] was “— (GI% < 10)”. The GI% [7] was 16.44%, the GI% [8] was “— (GI% < 10)” and the GI% [9] was 12.77%. The GI% [10] was 14.74%, the GI% [11] was 18.61% and the GI% [12] was “— (GI% < 10)”. For the same molecule, the GI% [13] was “— (GI% < 10)”, the GI% [14] was “— (GI% < 10)” and the GI% [15] was 16.01%. The GI% [16] was “— (GI% < 10)”, the GI% [17] was “— (GI% < 10)” and the GI% [18] was 22.79%. For the same molecule, the GI% [19] was “— (GI% < 10)”, the GI% [20] was “— (GI% < 10)” and the GI% [21] was “— (GI% < 10)”. For the same molecule, the GI% [22] was “— (GI% < 10)”, the GI% [23] was 21.56% and the GI% [24] was 27.87%. For the same molecule, the GI% [25] was 24.06%, the GI% [26] was 16.70% and the GI% [27] was “— (GI% < 10)”. For the same molecule, the GI% [28] was 39.15%, the GI% [29] was “— (GI% < 10)” and the GI% [30] was “— (GI% < 10)”. The GI% [31] was “— (GI% < 10)”, the GI% [32] was “— (GI% < 10)” and the GI% [33] was “— (GI% < 10)”. The GI% [34] was “— (GI% < 10)”, the GI% [35] was “— (GI% < 10)” and the GI% [36] was “— (GI% < 10)”. For the same molecule, the GI% [37] was “— (GI% < 10)”, the GI% [38] was “— (GI% < 10)” and the GI% [39] was “— (GI% < 10)”. For the same molecule, the GI% [40] was 49.74%, the GI% [41] was “— (GI% < 10)” and the GI% [42] was 27.14%. For the same molecule, the GI% [43] was 20.64%, the GI% [44] was “— (GI% < 10)” and the GI% [45] was 38.26%. For the same molecule, the GI% [46] was “— (GI% < 10)”, the GI% [47] was 45.51% and the GI% [48] was 21.66%. The GI% [49] was 19.19%, the GI% [50] was “— (GI% < 10)” and the GI% [51] was “— (GI% < 10)”. The GI% [52] was 14.25%, the GI% [53] was “— (GI% < 10)” and the GI% [54] was “— (GI% < 10)”. For the same molecule, the GI% [55] was “— (GI% < 10)”, the GI% [56] was 21.72% and the GI% [57] was 16.76%. The GI% [58] was 11.73%, the GI% [59] was 10.38% and the GI% [60] was “— (GI% < 10)”. For the same molecule, the “Mean GI%” value [61] was “— (GI% < 10)”.
